Experimental data as given in patent publication US20140274688A1, “MOLECULES HAVING CERTAIN PESTICIDAL UTILITIES, AND INTERMEDIATES, COMPOSITIONS, AND PROCESSES RELATED THERETO” (DOW AGROSCIENCES LLC, priority 2013, published 2014).

Assays:
[1] = test system: Cabbage Looper (Trichoplusia ni) ("CL"); experiment: Bioassay on Cabbage Looper (CL), 128-well diet tray assay, percent mortality; format: in vivo; details: Trichoplusia ni, read-out: CL
Summary of the method: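 Larvae held in covered diet trays at 25 °C, 14:10 light-dark, for five to seven days. Percent mortality scored per well and averaged over eight wells.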

[2] = test system: Beet Armyworm (Spodoptera exigua) ("BAW"); experiment: Bioassay on Beet Armyworm (BAW), 128-well diet tray assay, percent mortality; format: in vivo; details: Spodoptera exigua, read-out: BAW
Summary of the method: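 Larvae in covered diet trays held at 25 °C, 14:10 light-dark, for five to seven days. Percent mortality scored per well and averaged over eight wells per treatment.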

Compound	pest or weed control at 50 µg/cm2 [1]	pest or weed control at 50 µg/cm2 [2]
CCCc1ccc(C)cc1N1C(=O)CS/C1=N\C(=O)NCCCc1cccc(-c2ncn(-c3ccc(OC(F)(F)F)cc3)n2)c1 [P125, (Z)-1-(3-(5-methyl-2-propylphenyl)-4-oxothiazolidin-2-ylidene)-3-(3-(3-(1-(4-(trifluoromethoxy)phenyl)-1H-1,2,4-triazol-3-yl)phenyl)propyl)urea]	50 to 100%	50 to 100%
CCc1cccc(C)c1N1C(=O)CS/C1=N\C(=O)NCCCc1cccc(-c2ncn(-c3ccc(OC(F)(F)F)cc3)n2)c1 [P127, (Z)-1-(3-(2-ethyl-6-methylphenyl)-4-oxothiazolidin-2-ylidene)-3-(3-(3-(1-(4-(trifluoromethoxy)phenyl)-1H-1,2,4-triazol-3-yl)phenyl)propyl)urea]	50 to 100%	50 to 100%
Cc1ccc(N2C(=O)CS/C2=N\C(=O)NCCCc2cccc(-c3ncn(-c4ccc(OC(F)(F)F)cc4)n3)c2)c(C(C)C)c1 [P128, (Z)-1-(3-(2-isopropyl-4-methylphenyl)-4-oxothiazolidin-2-ylidene)-3-(3-(3-(1-(4-(trifluoromethoxy)phenyl)-1H-1,2,4-triazol-3-yl)phenyl)propyl)urea]	50 to 100%	50 to 100%
CC(C)c1cc(F)ccc1N1C(=O)CS/C1=N\C(=O)NCCCc1cccc(-c2ncn(-c3ccc(OC(F)(F)F)cc3)n2)c1 [P129, (Z)-1-(3-(4-fluoro-2-isopropylphenyl)-4-oxothiazolidin-2-ylidene)-3-(3-(3-(1-(4-(trifluoromethoxy)phenyl)-1H-1,2,4-triazol-3-yl)phenyl)propyl)urea]	50 to 100%	50 to 100%
COc1ccc(N2C(=O)CS/C2=N\C(=O)NCCCc2cccc(-c3ncn(-c4ccc(OC(F)(F)F)cc4)n3)c2)c(C)c1 [P131, (Z)-1-(3-(4-methoxy-2-methylphenyl)-4-oxothiazolidin-2-ylidene)-3-(3-(3-(1-(4-(trifluoromethoxy)phenyl)-1H-1,2,4-triazol-3-yl)phenyl)propyl)urea]	50 to 100%	50 to 100%
CCc1ccccc1N1C(=O)CS/C1=N\C(=O)NCCCCc1ccc(-c2ncn(-c3ccc(OC(F)(F)F)cc3)n2)cc1 [P145, (Z)-1-(3-(2-ethylphenyl)-4-oxothiazolidin-2-ylidene)-3-(4-(4-(1-(4-(trifluoromethoxy)phenyl)-1H-1,2,4-triazol-3-yl)phenyl)butyl)urea]	50 to 100%	50 to 100%
CC(C)c1ccccc1N1C(=O)CS/C1=N\C(=O)NCCCCc1ccc(-c2ncn(-c3ccc(OC(F)(F)F)cc3)n2)cc1 [P146, (Z)-1-(3-(2-isopropylphenyl)-4-oxothiazolidin-2-ylidene)-3-(4-(4-(1-(4-(trifluoromethoxy)phenyl)-1H-1,2,4-triazol-3-yl)phenyl)butyl)urea]	50 to 100%	50 to 100%
Cc1ccc(C(C)C)c(N2C(=O)CS/C2=N\C(=O)NCCCCc2ccc(-c3ncn(-c4ccc(OC(F)(F)F)cc4)n3)cc2)c1 [P150, (Z)-1-(3-(2-isopropyl-5-methylphenyl)-4-oxothiazolidin-2-ylidene)-3-(4-(4-(1-(4-(trifluoromethoxy)phenyl)-1H-1,2,4-triazol-3-yl)phenyl)butyl)urea]	50 to 100%	50 to 100%
CCCc1ccc(C)cc1N1C(=O)CS/C1=N\C(=O)NCCCCc1ccc(-c2ncn(-c3ccc(OC(F)(F)F)cc3)n2)cc1 [P151, (Z)-1-(3-(5-methyl-2-propylphenyl)-4-oxothiazolidin-2-ylidene)-3-(4-(4-(1-(4-(trifluoromethoxy)phenyl)-1H-1,2,4-triazol-3-yl)phenyl)butyl)urea]	50 to 100%	50 to 100%
CC(C)c1cc(F)ccc1N1C(=O)CS/C1=N\C(=O)NCCCCc1ccc(-c2ncn(-c3ccc(OC(F)(F)F)cc3)n2)cc1 [P155, (Z)-1-(3-(4-fluoro-2-isopropylphenyl)-4-oxothiazolidin-2-ylidene)-3-(4-(4-(1-(4-(trifluoromethoxy)phenyl)-1H-1,2,4-triazol-3-yl)phenyl)butyl)urea]	50 to 100%	50 to 100%
COc1ccc(C(C)C)c(N2C(=O)CS/C2=N\C(=O)NCCCCc2ccc(-c3ncn(-c4ccc(OC(F)(F)F)cc4)n3)cc2)c1 [P156, (Z)-1-(3-(2-isopropyl-5-methoxyphenyl)-4-oxothiazolidin-2-ylidene)-3-(4-(4-(1-(4-(trifluoromethoxy)phenyl)-1H-1,2,4-triazol-3-yl)phenyl)butyl)urea]	50 to 100%	50 to 100%
CCc1ccccc1N1C(=O)CS/C1=N\C(=O)NCCCCc1cccc(-c2ncn(-c3ccc(OC(F)(F)F)cc3)n2)c1 [P171, (Z)-1-(3-(2-ethylphenyl)-4-oxothiazolidin-2-ylidene)-3-(4-(3-(1-(4-(trifluoromethoxy)phenyl)-1H-1,2,4-triazol-3-yl)phenyl)butyl)urea]	50 to 100%	50 to 100%
CC(C)c1ccccc1N1C(=O)CS/C1=N\C(=O)NCCCCc1cccc(-c2ncn(-c3ccc(OC(F)(F)F)cc3)n2)c1 [P172, (Z)-1-(3-(2-isopropylphenyl)-4-oxothiazolidin-2-ylidene)-3-(4-(3-(1-(4-(trifluoromethoxy)phenyl)-1H-1,2,4-triazol-3-yl)phenyl)butyl)urea]	50 to 100%	50 to 100%
Cc1ccc(C(C)C)c(N2C(=O)CS/C2=N\C(=O)NCCCCc2cccc(-c3ncn(-c4ccc(OC(F)(F)F)cc4)n3)c2)c1 [P176, (Z)-1-(3-(2-isopropyl-5-methylphenyl)-4-oxothiazolidin-2-ylidene)-3-(4-(3-(1-(4-(trifluoromethoxy)phenyl)-1H-1,2,4-triazol-3-yl)phenyl)butyl)urea]	50 to 100%	50 to 100%
CC(C)c1cc(F)ccc1N1C(=O)CS/C1=N\C(=O)NCCCCc1cccc(-c2ncn(-c3ccc(OC(F)(F)F)cc3)n2)c1 [P181, (Z)-1-(3-(4-fluoro-2-isopropylphenyl)-4-oxothiazolidin-2-ylidene)-3-(4-(3-(1-(4-(trifluoromethoxy)phenyl)-1H-1,2,4-triazol-3-yl)phenyl)butyl)urea]	50 to 100%	50 to 100%
COc1ccc(C(C)C)c(N2C(=O)CS/C2=N\C(=O)NCCCCc2cccc(-c3ncn(-c4ccc(OC(F)(F)F)cc4)n3)c2)c1 [P182, (Z)-1-(3-(2-isopropyl-5-methoxyphenyl)-4-oxothiazolidin-2-ylidene)-3-(4-(3-(1-(4-(trifluoromethoxy)phenyl)-1H-1,2,4-triazol-3-yl)phenyl)butyl)urea]	50 to 100%	50 to 100%
CCC(CNC(=O)/N=C1\SCC(=O)N1c1cc(C)ccc1C(C)C)c1ccc(-c2ncn(-c3ccc(OC(F)(F)F)cc3)n2)cc1 (stereo not shown) [P364, (Z)-1-(3-(2-isopropyl-5-methylphenyl)-4-oxothiazolidin-2-ylidene)-3-(2-(4-(1-(4-(trifluoromethoxy)phenyl)-1H-1,2,4-triazol-3-yl)phenyl)butyl)urea]	50 to 100%	50 to 100%
